Source: patent US8334382B2, “Substituted biaryl piperazinyl-pyridine analogues” (Neurogen Corporation, priority 2004, dated 2012)

Molecular target: T1, human capsaicin receptor (Homo sapiens, UniProt Q8NER1)
T1 construct: expressed in transfected cells; host or cells: HEK293, stably transfected with pBK-CMV construct
Test: Calcium mobilization assay, determination of antagonist activity
Format: cell-based
Conditions: capsaicin at EC50; cells expressing human capsaicin receptor; Example 6
Procedure: A cDNA encoding full length human capsaicin receptor (SEQ ID NO:1, 2 or 3 of U.S. Pat. No. 6,482,611) is subcloned in the plasmid pBK-CMV (Stratagene, La Jolla, Calif.) for recombinant expression in mammalian cells.
Human embryonic kidney (HEK293) cells are transfected with the pBK-CMV expression construct encoding the full length human capsaicin receptor using standard methods. The transfected cells are selected for two weeks in media containing G418 (400 μg/ml) to obtain a pool of stably transfected cells. Independent clones are isolated from this pool by limiting dilution to obtain clonal stable cell lines for use in subsequent experiments.
Cells transfected with expression plasmids (as described in Example 4) and thereby expressing human capsaicin receptor are seeded and grown to 70-90% confluency in FALCON black-walled, clear-bottomed 96-well plates (#3904, BECTON-DICKINSON, Franklin Lakes, N.J.). The culture medium is emptied from the 96 well plates and FLUO-3 AM calcium sensitive dye (Molecular Probes, Eugene, Oreg.) is added to each well (dye solution: 1 mg FLUO-3 AM, 440 μL DMSO and 440 μl 20% pluronic acid in DMSO, diluted 1:250 in Krebs-Ringer HEPES (KRH) buffer (25 mM HEPES, 5 mM KCl, 0.96 mM NaH2PO4, 1 mM MgSO4, 2 mM CaCl2, 5 mM glucose, 1 mM probenecid, pH 7.4), 50 μl diluted solution per well). Plates are covered with aluminum foil and incubated at 37° C. for 1-2 h in an environment containing 5% CO2. After the incubation, the dye is emptied from the plates, and the cells are washed once with KRH buffer, and resuspended in KRH buffer.
To measure the ability of a test compound to agonize or antagonize a calcium mobilization response in cells expressing capsaicin receptors to capsaicin or other vanilloid agonist, the EC50 of the agonist capsaicin is first determined. An additional 20 μl of KRH buffer and 1 μl DMSO is added to each well of cells, prepared as described above. 100 μl capsaicin in KRH buffer is automatically transferred by the FLIPR instrument to each well. Capsaicin-induced calcium mobilization is monitored using either FLUOROSKAN ASCENT (Labsystems; Franklin, Mass.) or FLIPR (fluorometric imaging plate reader system; Molecular Devices, Sunnyvale, Calif.) instruments. Data obtained between 30 and 60 seconds after agonist application are used to generate an 8-point concentration response curve, with final capsaicin concentrations of 1 nM to 3 μM. KALEIDAGRAPH software (Synergy Software, Reading, Pa.) is used to fit the data to the equation: y=a*(1/(1+(b/x)^c)) to determine the 50% excitatory concentration (EC50) for the response. In this equation, y is the maximum fluorescence signal, x is the concentration of the agonist or antagonist (in this case, capsaicin), a is the Emax, b corresponds to the EC50 value and c is the Hill coefficient. Determination of Agonist Activity
Test compounds are dissolved in DMSO, diluted in 20 μl KRH buffer so that the final concentration of test compounds in the assay well is between 1 μM and 5 μM, and added to cells prepared as described above. The 96 well plates containing prepared cells and test compounds are incubated in the dark, at room temperature for 0.5 to 6 h. It is important that the incubation not continue beyond 6 h. Just prior to determining the fluorescence response, 100 μl capsaicin in KRH buffer at twice the EC50 concentration determined as described above is automatically added by the FLIPR instrument to each well of the 96 well plate for a final sample volume of 200 μl and a final capsaicin concentration equal to the EC50. The final concentration of test compounds in the assay wells is between 1 μM and 5 μM. […] The concentration of antagonist required to provide a 50% decrease, relative to the response observed in the presence of capsaicin and without antagonist, is the IC50 for the antagonist, and is preferably below 1 micromolar, 100 nanomolar, 10 nanomolar or 1 nanomolar.

T1 sequence (Q8NER1 whole entry): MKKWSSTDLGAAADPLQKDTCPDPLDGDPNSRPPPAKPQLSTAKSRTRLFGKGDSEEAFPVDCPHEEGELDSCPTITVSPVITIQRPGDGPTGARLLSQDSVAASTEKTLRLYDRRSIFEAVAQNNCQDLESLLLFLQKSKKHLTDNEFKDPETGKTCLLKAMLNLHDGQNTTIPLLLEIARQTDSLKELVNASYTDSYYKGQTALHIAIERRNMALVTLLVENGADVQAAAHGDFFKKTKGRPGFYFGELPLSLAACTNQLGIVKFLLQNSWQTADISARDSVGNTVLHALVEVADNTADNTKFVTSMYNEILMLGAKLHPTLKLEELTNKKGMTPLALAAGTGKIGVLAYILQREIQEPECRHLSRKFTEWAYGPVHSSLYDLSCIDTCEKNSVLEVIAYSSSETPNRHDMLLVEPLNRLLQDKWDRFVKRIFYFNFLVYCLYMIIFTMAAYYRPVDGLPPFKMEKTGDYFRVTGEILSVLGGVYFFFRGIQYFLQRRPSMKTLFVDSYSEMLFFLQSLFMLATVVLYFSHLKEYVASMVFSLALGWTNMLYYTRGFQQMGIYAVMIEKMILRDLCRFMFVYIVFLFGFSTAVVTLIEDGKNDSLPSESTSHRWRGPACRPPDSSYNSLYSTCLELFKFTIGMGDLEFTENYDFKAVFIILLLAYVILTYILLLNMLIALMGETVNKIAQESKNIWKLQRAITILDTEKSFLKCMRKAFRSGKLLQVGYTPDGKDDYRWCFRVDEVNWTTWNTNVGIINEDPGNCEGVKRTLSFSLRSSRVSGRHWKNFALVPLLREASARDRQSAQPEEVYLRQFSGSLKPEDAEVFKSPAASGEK

SMILES	IC50
NC(=O)c1cccnc1N1CCN(c2cc(-c3ccc(F)c(Cl)c3)nc(N3CCOCC3)n2)CC1 [Example 2, 2-{4-[6-(3-Chloro-4-fluoro-phenyl)-2-morpholin-4-yl-pyrimidin-4-yl]-piperazin-l-yl}-nicotinamide]	≤ 1000 nM
Cc1cc(C(=O)N2CCN(C3CCCC3)CC2)cnc1N1CCN(c2cc(-c3ccc(F)cc3)nc(N3CCCC3C)n2)CC1 (stereo not drawn) [Example 133, 4-(4-{5-[(4-cyclopentylpiperazin-1-yl)carbonyl]-3-methylpyridin-2-yl}piperazin-1-yl)-6-(4-fluorophenyl)-2-(2-methylpyrrolidin-1-yl)pyrimidine]	≤ 1000 nM
CCOC(=O)c1cnc(N2CCN(c3cc(-c4ccc(F)cc4)nc(N4CCCC4C)n3)[C@H](C)C2)c(Cl)c1 (stereo partly drawn) [Example 27, 5-Chloro-6-{4-[6-(4-fluoro-phenyl)-2-(2-methyl-pyrrolidin-1-yl)-pyrimidin-4-yl]-3-(R)-methyl-piperazin-1-yl}-nicotinic acid ethyl ester]	≤ 1000 nM
Cc1cc(CO)cnc1N1CCN(c2cc(-c3ccccc3)nc(N3CCCC3C)n2)[C@H](C)C1 (stereo partly drawn) [Example 63, (5-Methyl-6-{3-(R)-methyl-4-[2-(2-methyl-pyrrolidin-1-yl)-6-phenyl-pyrimidin-4-yl]-piperazin-1-yl}-pyridin-3-yl)-methanol]	≤ 1000 nM
C[C@@H]1CN(c2ncc(C(N)=O)cc2Cl)CCN1c1cc(-c2ccc(F)c(Cl)c2)ncn1 [Example 86, 5-Chloro-6-{4-[6-(3-chloro-4-fluoro-phenyl)-pyrimidin-4-yl]-3-(R)-methyl-piperazin-1-yl}-nicotinamide]	≤ 1000 nM
CC(C)c1cc(-c2cc(N3CCN(c4ncc(CO)cc4Cl)C[C@H]3C)nc(N3CCCC3C)n2)ccn1 (stereo partly drawn) [Example 50, (5-Chloro-6-{4-[6-(2-isopropyl-pyridin-4-yl)-2-(2-methyl-pyrrolidin-1-yl)-pyrimidin-4-yl]-3-(R)-methyl-piperazin-1-yl}-pyridin-3-yl)-methanol]	≤ 1000 nM
Cc1ccc(C(=O)O)nc1N1CCN(c2cc(-c3ccc(F)cc3)nc(N3CCC[C@H]3C)n2)[C@H](C)C1 [Example 144, 6-{4-[6-(4-Fluoro-phenyl)-2-(2-(R)-methyl-pyrrolidin-l-yl)-pyrimidin-4-yl]-3-(R)-methyl-piperazin-1-yl}-5-methyl-pyridine-2-carboxylic acid]	≤ 1000 nM
CCCN1CCN(c2nc(-c3ccc(F)c(Cl)c3)cc(N3CCN(c4ncc(C(=O)OCC)cc4Cl)CC3)n2)CC1 [Example 23, 5-Chloro-6-{4-[6-(3-chloro-4-fluoro-phenyl)-2-(4-propyl-piperazin-l-yl)-pyrimidin-4-yl] - piperazin-1-yl}-nicotinic acid ethyl ester]	≤ 1000 nM
CCOC(=O)c1cnc(N2CCN(c3cc(-c4cncc(Cl)c4)nc(N4CCCC4C)n3)[C@H](C)C2)c(Cl)c1 (stereo partly drawn) [Example 42, 5-Chloro-6-{4-[6-(5-chloro-pyridin-3-yl)-2-(2-methyl-pyrrolidin-1-yl)-pyrimidin-4-yl]-3-(R)-methyl-piperazin-1-yl}-nicotinic acid ethyl ester]	≤ 1000 nM
C[C@@H]1CN(c2ncc(CO)cc2Cl)CCN1c1cc(-c2ccc(F)cc2)nc(N2CCCC2)n1 [Example 32, (5-Chloro-6-{4-[6-(4-fluoro-phenyl)-2-pyrrolidin-1-yl-pyrimidin-4-yl]-3-(R)-methyl-piperazin-1-yl}-pyridin-3-yl)-methanol]	≤ 1000 nM

More lines, now with the values ahead:

IC50	SMILES
≤ 1000 nM	CCCN1CCN(c2nc(-c3ccc(F)c(Cl)c3)cc(N3CCN(c4ncc(C(=O)O)cc4Cl)CC3)n2)CC1 [Example 17, 5-Chloro-6-{4-[6-(3-chloro-4-fluoro-phenyl)-2-(4-propyl-piperazin-1-yl)-pyrimidin-4-yl]-piperazin-1-yl}-nicotinic acid]
≤ 1000 nM	Cc1cc(C(=O)O)cnc1N1CCN(c2cc(-c3ccc(F)cc3)nc(N3CCC[C@H]3C)c2)[C@H](C)C1 [Example 172, 6-{4-[2-(4-Fluoro-phenyl)-6-(2-(R)-methyl-pyrrolidin-1-yl)-pyridin-4-yl]-3-(R)-methyl-piperazin-1-yl}-5-methyl-nicotinic acid]
≤ 1000 nM	Cc1cc(OCCO)cnc1N1CCN(c2cc(-c3ccc(F)cc3)nc(N3CCC[C@H]3CO)n2)[C@H](C)C1 [Example 184, 2-{[6-((3R)-4-{6-(4-fluorophenyl)-2-[(2S)-2-(hydroxymethyl)pyrrolidin-1-yl]pyrimidin-4-yl}-3-methylpiperazin-1-yl)-5-methylpyridin-3-yl]oxy}ethanol]
≤ 1000 nM	Cc1cc(C(=O)N2CCCCC2)cnc1N1CCN(c2cc(-c3ccc(F)cc3)nc(N3CCCC3C)n2)CC1 (stereo not drawn) [Example 123, 4-(4-fluorophenyl)-6-{4-[3-methyl-5-(piperidin-1-ylcarbonyl)pyridin-2-yl]piperazin-1-yl}-2-(2-methylpyrrolidin-1-yl)pyrimidine]
≤ 1000 nM	Cc1cc(CO)cnc1N1CCN(c2cc(-c3ccc(F)cc3)nc(N3CCCC3C)n2)CC1 (stereo not drawn) [Example 38, (6-{4-[6-(4-Fluoro-phenyl)-2-(2-methyl-pyrrolidin-1-yl)-pyrimidin-4-yl]-piperazin-1-yl}-5-methyl-pyridin-3-yl)-methanol]
≤ 1000 nM	CC1CCCN1c1nc(-c2ccccc2)cc(N2CCN(c3ncc(CO)cc3Cl)C[C@H]2C)n1 (stereo partly drawn) [Example 47, (5-Chloro-6-{3-(R)-methyl-4-[2-(2-methyl-pyrrolidin-1-yl)-6-phenyl-pyrimidin-4-yl]-piperazin-1-yl}-pyridin-3-yl)-methanol]
≤ 1000 nM	Cc1cc(C(=O)O)cnc1N1CCN(c2cc(-c3ccc(F)cc3)nc(N(C)C(C)C)n2)[C@H](C)C1 [Example 153, 6-{4-[6-(4-Fluoro-phenyl)-2-(isopropyl-methyl-amino)-pyrimidin-4-yl]-3-(R)-methyl-piperazin-1-yl}-5-methyl-nicotinic acid]
≤ 1000 nM	C[C@@H]1CN(c2ncc(C(=O)NCCO)cc2Cl)CCN1c1cc(-c2ccccc2)nc(N2CCC[C@H]2C)n1 [Example 167, 5-Chloro-N-(2-hydroxy-ethyl)-6-{3-(R)-methyl-4-[2-(2-(R)-methyl-pyrrolidin-1-yl)-6-phenyl-pyrimidin-4-yl]-piperazin-1-yl}-nicotinamide]
≤ 1000 nM	Cc1cc(C(=O)N2CCCCC2C)cnc1N1CCN(c2cc(-c3ccc(F)cc3)nc(N3CCCC3C)n2)CC1 (stereo not drawn) [Example 128, 4-(4-fluorophenyl)-6-(4-{3-methyl-5-[(2-methylpiperidin-1-yl)carbonyl]pyridin-2-yl}piperazin-1-yl)-2-(2-methylpyrrolidin-1-yl)pyrimidine]
≤ 1000 nM	CCOC(=O)c1cnc(N2CCN(c3cc(-c4ccnc(C(C)C)c4)nc(N4CCCC4C)n3)CC2)c(C)c1 (stereo not drawn) [Example 57, 6-{4-[6-(2-Isopropyl-pyridin-4-yl)-2-(2-methyl-pyrrolidin-1-yl)-pyrimidin-4-yl]-piperazin-1-yl}-5-methyl - nicotinic acid ethyl ester]
≤ 1000 nM	CCOC(=O)c1cnc(N2CCN(c3cc(-c4ccccc4)nc(N4CCCC4C)n3)[C@H](C)C2)c(C)c1 (stereo partly drawn) [Example 58, 5-Methyl-6-{3-(R)-methyl-4-[2-(2-methyl-pyrrolidin-1-yl)-6-phenyl-pyrimidin-4-yl]-piperazin-1-yl}-nicotinic acid ethyl ester]
